From patent US5049506A, “Proline-containing decapeptides as substrates for factor XIII” (Behringwerke Aktiengesellschaft, priority 1987, dated 1991)
Non-standard residues stand in square brackets, D forms with d. Residues, ends and D or L forms follow the SMILES beside them. Hyp = O=C(O)[C@@H]1C[C@@H](O)CN1

Molecular target: T1, factor XIII (Homo sapiens, UniProt P00488)
T1 sequence (P00488 39-732 limits assumed): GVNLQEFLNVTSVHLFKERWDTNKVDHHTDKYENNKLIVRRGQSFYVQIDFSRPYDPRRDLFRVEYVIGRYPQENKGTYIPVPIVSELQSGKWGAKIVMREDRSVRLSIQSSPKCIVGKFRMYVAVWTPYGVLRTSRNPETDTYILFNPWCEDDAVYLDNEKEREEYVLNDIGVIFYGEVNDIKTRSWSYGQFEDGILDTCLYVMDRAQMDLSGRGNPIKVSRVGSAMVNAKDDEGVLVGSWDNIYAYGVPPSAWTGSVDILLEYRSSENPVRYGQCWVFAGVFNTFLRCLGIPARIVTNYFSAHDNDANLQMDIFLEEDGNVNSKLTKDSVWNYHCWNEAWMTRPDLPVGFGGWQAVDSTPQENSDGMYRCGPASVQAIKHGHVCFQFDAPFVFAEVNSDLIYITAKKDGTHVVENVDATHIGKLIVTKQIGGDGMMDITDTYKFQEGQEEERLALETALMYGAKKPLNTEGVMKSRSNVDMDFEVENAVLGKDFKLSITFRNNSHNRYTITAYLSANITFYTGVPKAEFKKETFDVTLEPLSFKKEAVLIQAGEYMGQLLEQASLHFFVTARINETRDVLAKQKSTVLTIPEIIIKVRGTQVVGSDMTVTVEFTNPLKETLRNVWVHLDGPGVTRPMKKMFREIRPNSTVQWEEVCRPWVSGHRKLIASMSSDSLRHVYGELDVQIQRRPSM
Assay: Determination of factor XIII activity by photometric measurement (peptide as substrate, NADH/GLDH-coupled ammonia detection)
Format: biochemical
Conditions: decrease in extinction at 340 nm; factor XIII 0.6 U activated with thrombin at 37° C. for 10 min; 100 μl decapeptide amide solution (10 mg/ml in H2O); glycine ethyl ester
Procedure: To test the peptides for their suitability as substrates for the transglutaminase F XIII, a sample solution which contains factor XIII is activated in a buffer mixture which contains about 30mmol/1 calcium chloride at pH 7.6±0.5 with thrombin. The peptide solutions, a solution of an amine derivative, for example glycine ethyl ester or glycine methyl ester, ketoglutarate buffer, glutamic dehydrogenase and an NADH solution are then added. The liberation of ammonia from the decapeptide amide is then measured by means of the decrease in extinction at 340±15nm, and the activity of F XIII is determined.
50 μl of a solution containing factor XIII (0.6 U), which had been adjusted to pH 7.6 and which contained 50 millimolar HEPES, 150 milli molar sodium chloride and 30 millimolar CaC12, were incubated with 25 μl of thrombin solution (30 units dissolved in 1 ml physiological saline) in a 1 ml cuvette at 37° C. for 10 min. 700 μl of a buffer solution composed of triethanolamine pH 8.0, 2.2 g of alpha-ketoglutarate/liter and 133 mg of NADH/liter were added. The sample solution was then mixed with 25 μl of a solution of […] of glutamic dehydrogenase (about 120 units/mg), 100 ml of glycerol, pH 7, 100 μl of glycine ethyl ester (30 mg/ml in H2 O) and 100 μl of decapeptide amide solution (10 mg/ml in H2 O). The decrease in extinction was measured. The results of the kinetic measurement at 340 nm are to be found in the form of delta OD/min values in the following Tables.

Delta OD/min	Structure (SMILES)
0.27 OD/min	CC(C)C[C@H](NC(=O)[C@@H](NC(=O)[C@H](CCCCN)NC(=O)[C@H](CO)NC(=O)[C@H](CCC(N)=O)NC(=O)CNC(=O)[C@@H]1C[C@@H](O)CN1C(=O)CNC(=O)[C@@H](N)CC(C)C)C(C)C)C(=O)NCC(N)=O [Leu--Gly--Hyp--Gly--Gln--Ser--Lys--Val--Leu--Gly--NH2] (H-LG[Hyp]GQSKVLG-NH2)
0.35 OD/min	CC[C@H](C)[C@H](NC(=O)[C@@H](NC(=O)[C@H](CCCCN)NC(=O)[C@H](CO)NC(=O)[C@H](CCC(N)=O)NC(=O)CNC(=O)[C@@H]1CCCN1C(=O)CNC(=O)[C@@H](N)CC(C)C)C(C)C)C(=O)NCC(N)=O [Leu--Gly--Pro--Gly--Gln--Ser--Lys--Val--Ile--Gly--NH2] (H-LGPGQSKVIG-NH2)
0.32 OD/min	CC(C)C[C@H](NC(=O)[C@@H](NC(=O)[C@H](CCCCN)NC(=O)[C@H](CO)NC(=O)[C@H](CCC(N)=O)NC(=O)CNC(=O)[C@@H]1CCCN1C(=O)CNC(=O)[C@@H](N)CC(C)C)C(C)C)C(=O)NCC(N)=O [Leu--Gly--Pro--Gly--Gln--Ser--Lys--Val--Leu--Gly--NH2] (H-LGPGQSKVLG-NH2)
